Activity calls are given as the source filed them. The rule behind the calls is not given here.
How the values were obtained:
[1] = biological target: Ribosomal protein S6 kinase alpha-3 (Homo sapiens, UniProt P51812); assay: Inhibition of RSK2 (unknown origin) assessed as phosphorylation by Western lightning enhanced chemiluminescent reagent/HRP activity assay
MCF7 [2] = assay: Antiproliferative activity against human MCF7 cells at 100 uM after 48 hrs by CellTiterGlo assay; assay type: functional
MCF-10A [3] = assay: Antiproliferative activity against human MCF10A cells at 100 uM after 48 hrs by CellTiterGlo assay; assay type: functional, cell-based
MCF7 [4] = assay: Antiproliferative activity against human MCF7 cells at 25 uM after 48 hrs by CellTiterGlo assay; assay type: functional; settings: MCF7, 48 h
MCF-10A [5] = assay: Antiproliferative activity against human MCF10A cells at 25 uM after 48 hrs by CellTiterGlo assay; assay type: functional, cell-based
MCF7 [6] = assay: Antiproliferative activity against human MCF7 cells at 50 uM after 48 hrs by CellTiterGlo assay; assay type: functional, cell-based
[7] = biological target: Ribosomal protein S6 kinase alpha-1 (Homo sapiens) (UniProt Q15418); assay: Inhibition of RSK in PMA-stimulated human MCF7 cells assessed as increase in phosphorylation of eEF2 at 50 uM by immunoblotting analysis; assay type: cell-based
MCF7 [8] = assay: Reduction in cyclin D1 in PMA-stimulated human MCF7 cells at 50 uM by immunoblotting analysis; assay type: functional, cell-based
MCF7 [9] = assay: Increase in phosphorylation motif of protein kinase A in human MCF7 cells at 50 uM by immunoblotting analysis; assay type: cell-based
[10] = biological target: Protein kinase C (PKC) (Homo sapiens) (UniProt O94806+P41743+P17252+P05129+Q05655+P05771+Q05513+Q02156+P24723+Q15139+Q04759); assay: Effect on phosphorylation motif of protein kinase C in human MCF7 cells at 50 uM by immunoblotting analysis; assay type: cell-based
MCF7 [11] = assay: Effect on phosphorylation motif of tyrosine kinase in human MCF7 cells at 50 uM by immunoblotting analysis; assay type: cell-based
MCF-10A [12] = assay: Antiproliferative activity against human MCF10A cells at 50 uM after 48 hrs by CellTiterGlo assay; assay type: functional, cell-based
[13] = biological target: Ribosomal protein S6 kinase alpha-1 (Homo sapiens) (UniProt Q15418); assay: Inhibition of RSK in PMA-stimulated human MCF7 cells assessed as decrease in intensity of band at 65 and 27 kDa at 50 uM by immunoblotting analysis; assay type: cell-based
[14] = biological target: Ribosomal protein S6 kinase alpha-1 (Homo sapiens) (UniProt Q15418); assay: Inhibition of RSK in PMA-stimulated human MCF7 cells assessed as increase in phosphorylation of eEF2 at 100 uM by immunoblotting analysis; assay type: cell-based
MCF7 [15] = assay: Reduction in cyclin D1 in PMA-stimulated human MCF7 cells at 100 uM by immunoblotting analysis; assay type: functional, cell-based
MCF7 [16] = assay: Increase in phosphorylation motif of protein kinase A in human MCF7 cells at 100 uM by immunoblotting analysis; assay type: cell-based
[17] = biological target: Ribosomal protein S6 kinase alpha-1 (Homo sapiens) (UniProt Q15418); assay: Inhibition of RSK in PMA-stimulated human MCF7 cells assessed as decrease in intensity of band at 65 and 27 kDa at 100 uM by immunoblotting analysis; assay type: cell-based

Ribosomal protein S6 kinase alpha-1 (Homo sapiens), sequence (Q15418 whole entry): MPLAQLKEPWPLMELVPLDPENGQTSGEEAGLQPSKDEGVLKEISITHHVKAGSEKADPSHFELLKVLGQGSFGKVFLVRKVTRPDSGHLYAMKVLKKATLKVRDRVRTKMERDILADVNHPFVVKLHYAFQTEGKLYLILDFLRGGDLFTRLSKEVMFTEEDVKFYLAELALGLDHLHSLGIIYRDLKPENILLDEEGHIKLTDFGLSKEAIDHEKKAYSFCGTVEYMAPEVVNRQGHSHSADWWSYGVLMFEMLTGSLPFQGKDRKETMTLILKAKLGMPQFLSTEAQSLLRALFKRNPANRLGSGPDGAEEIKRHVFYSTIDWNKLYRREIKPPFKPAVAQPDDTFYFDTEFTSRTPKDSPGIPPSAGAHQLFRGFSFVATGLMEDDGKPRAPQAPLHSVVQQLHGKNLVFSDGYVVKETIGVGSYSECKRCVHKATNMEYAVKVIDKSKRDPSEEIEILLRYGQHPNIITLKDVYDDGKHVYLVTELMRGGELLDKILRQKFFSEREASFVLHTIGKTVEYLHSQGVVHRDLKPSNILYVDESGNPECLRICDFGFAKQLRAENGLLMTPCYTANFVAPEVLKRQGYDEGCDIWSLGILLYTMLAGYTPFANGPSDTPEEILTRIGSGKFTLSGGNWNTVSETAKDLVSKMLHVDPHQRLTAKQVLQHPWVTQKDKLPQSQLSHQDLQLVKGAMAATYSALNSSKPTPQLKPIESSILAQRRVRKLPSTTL
Ribosomal protein S6 kinase alpha-3, sequence (P51812 whole entry): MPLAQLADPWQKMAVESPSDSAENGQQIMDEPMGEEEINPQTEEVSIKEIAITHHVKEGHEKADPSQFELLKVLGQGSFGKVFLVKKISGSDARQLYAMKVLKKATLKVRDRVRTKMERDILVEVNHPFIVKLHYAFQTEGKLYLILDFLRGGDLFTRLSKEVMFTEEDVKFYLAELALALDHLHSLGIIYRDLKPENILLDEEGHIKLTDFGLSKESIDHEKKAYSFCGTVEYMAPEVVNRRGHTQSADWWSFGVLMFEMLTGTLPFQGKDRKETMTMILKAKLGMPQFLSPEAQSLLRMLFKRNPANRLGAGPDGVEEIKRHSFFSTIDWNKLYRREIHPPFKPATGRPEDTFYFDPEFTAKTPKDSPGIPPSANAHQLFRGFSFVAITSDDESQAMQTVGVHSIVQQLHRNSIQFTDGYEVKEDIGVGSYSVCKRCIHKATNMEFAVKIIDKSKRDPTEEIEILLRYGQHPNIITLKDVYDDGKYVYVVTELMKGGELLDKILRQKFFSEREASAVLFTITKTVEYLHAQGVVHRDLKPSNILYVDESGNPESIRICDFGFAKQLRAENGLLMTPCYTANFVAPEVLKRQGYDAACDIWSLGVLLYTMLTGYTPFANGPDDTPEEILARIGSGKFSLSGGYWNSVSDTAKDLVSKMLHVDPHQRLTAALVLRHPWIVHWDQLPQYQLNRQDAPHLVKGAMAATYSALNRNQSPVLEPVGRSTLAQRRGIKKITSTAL

## CC(=O)O[C@H]1[C@H](O)[C@H](O)[C@@H](Oc2c(-c3ccc(O)cc3)oc3cc(O)cc(O)c3c2=O)C[C@@H]1C
[1]
  IC50: Not Active
MCF7 [2]
  inhibition: inactive
MCF-10A [3]
  inhibition: inactive

## CC(=O)O[C@@H]1[C@H](O)[C@@H](Oc2c(-c3ccc(O)cc3)oc3cc(O)cc(O)c3c2=O)CC[C@H]1OC(C)=O
[1]
  IC50: Not Active

## CC(=O)O[C@@H]1[C@@H](OC(C)=O)[C@@H](O)[C@H](Oc2c(-c3ccc(O)cc3)oc3cc(O)cc(O)c3c2=O)C[C@H]1C
[1]; read-out: IC50
  IC50: 270 nM
MCF7 [4]
  inhibition at 25 µM: 60%
MCF-10A [5]
  inhibition: Active
MCF7 [6]
  inhibition: Active
[7]
  Activity: Active
MCF7 [8]
  Activity: inactive
MCF7 [9]
  Activity: inactive
[10]
  Activity: inactive
MCF7 [11]
  Activity: inactive
MCF-10A [12]
  inhibition: Active
[13]
  inhibition: inactive

## CC(=O)O[C@H]1[C@@H](O)[C@H](OC(C)=O)[C@@H](C)C[C@@H]1Oc1c(-c2ccc(O)cc2)oc2cc(O)cc(O)c2c1=O
[1]
  IC50: Not Active

## CC(=O)O[C@@H]1[C@@H](O)[C@@H](O)[C@H](Oc2c(-c3ccc(O)cc3)oc3cc(O)cc(O)c3c2=O)C[C@H]1C
[1]; read-out: IC50
  IC50: 1230 nM
MCF7 [2]
  inhibition: Active
MCF-10A [3]
  inhibition: Active

## CC(=O)O[C@@H]1[C@H](O)[C@@H](Oc2c(-c3ccc(O)cc3)oc3cc(O)cc(O)c3c2=O)C[C@H](C)[C@H]1OC(C)=O
[1]
  IC50: Not Active

## CC(=O)O[C@@H]1[C@@H](O)[C@@H](OC(C)=O)[C@H](Oc2c(-c3ccc(O)cc3)oc3cc(O)cc(O)c3c2=O)C[C@H]1C
[1]; read-out: IC50
  IC50: 1600 nM
MCF7 [6]
  inhibition: Active
[7]
  Activity: Active
MCF7 [8]
  Activity: inactive
MCF7 [9]
  Activity: inactive
[10]
  Activity: inactive
MCF7 [11]
  Activity: inactive
MCF-10A [12]
  inhibition: Active
[13]
  inhibition: inactive

## CC(=O)O[C@H]1[C@@H](O)[C@H](Oc2c(-c3ccc(O)cc3)oc3cc(O)cc(O)c3c2=O)CC[C@@H]1OC(C)=O
[1]; read-out: IC50
  IC50: 8930 nM

## CC(=O)O[C@@H]1[C@@H](OC(C)=O)[C@@H](O)[C@H](Oc2c(-c3ccc(O)cc3)oc3cc(O)cc(O)c3c2=O)O[C@H]1C
MCF7 [2]; MCF7, 48 h
  inhibition at 100 µM: 60%
[14]
  Activity: Active
MCF7 [15]
  inhibition: Active
MCF7 [16]
  Activity: Active
[17]
  inhibition: Active

Reference: ChEMBL document CHEMBL3352279, “Synthesis and Structure-Activity Relationship Study of 5a-Carbasugar Analogues of SL0101” (ACS Med Chem Lett, 2015)
